Source: ChEMBL document CHEMBL3808339, “Identification, synthesis and evaluation of SARS-CoV and MERS-CoV 3C-like protease inhibitors” (Bioorg Med Chem, 2016)

The compounds below were run against Replicase polyprotein 1ab (Severe acute respiratory syndrome-related coronavirus, UniProt P0C6X7).
In the case of CC1=NN(c2ccccc2)C(=O)/C1=C\c1ccc(-c2cc(Cl)ccc2C(=O)O)o1, the IC50 is reported as over 50 µM.
COc1ccc(N2N=C(c3ccccc3)/C(=C/c3ccc(-c4ccccc4C(=O)O)o3)C2=O)cc1 was tested, and the IC50 was 30.7 µM.
Work on O=C(O)c1ccc(Cl)cc1-c1ccc(/C=C2\C(=O)N(c3ccc(F)cc3)N=C2c2ccccc2)o1 yielded an IC50 of 20.2 µM.
Compound CC(C)(C)c1ccc(N2N=C(c3ccccc3)/C(=C/c3ccc(-c4cc(Cl)ccc4C(=O)O)o3)C2=O)cc1 has an IC50 of 5.8 µM.
With CC1=NN(c2cccc(C(=O)O)c2)C(=O)/C1=C\c1ccc(-c2cc(Cl)ccc2C(=O)O)o1 the IC50 was over 50 µM.
Compound O=C(O)c1cccc(N2N=C(c3ccccc3)/C(=C/c3ccc(-c4ccccc4)o3)C2=O)c1 has an IC50 of 6.4 µM.
CC(C)c1ccc(N2N=C(c3ccccc3)/C(=C/c3ccc(-c4ccccc4C(=O)O)o3)C2=O)cc1 was tested, and the IC50 was 11.7 µM.
Work on O=C(O)c1cccc(N2N=C(c3ccccc3)/C(=C/c3ccco3)C2=O)c1 yielded an IC50 of over 50 µM.
Compound O=C(O)c1ccc(Cl)cc1-c1ccc(/C=C2\C(=O)N(c3ccccc3)N=C2c2ccccc2)o1 has an IC50 of 16.4 µM.
Work on O=C(O)c1ccccc1-c1ccc(/C=C2\C(=O)N(c3ccc(F)cc3)N=C2c2ccccc2)o1 yielded an IC50 of 37.5 µM.
Work on O=C(O)c1cccc(N2N=C(c3ccccc3)/C(=C/c3ccc(-c4cc(Cl)ccc4C(=O)O)o3)C2=O)c1 yielded an IC50 of 44.7 µM.
Work on O=C1/C(=C\c2ccc(-c3ccccc3)o2)C(c2ccccc2)=NN1c1ccccc1 yielded an IC50 of over 50 µM.
For CC(C)(C)c1ccc(N2N=C(c3ccccc3)/C(=C/c3ccc(-c4ccccc4C(=O)O)o3)C2=O)cc1, the IC50 was 8.6 µM.
Compound O=C(O)c1cccc(N2N=C(C(F)(F)F)/C(=C/c3ccc(-c4cc(Cl)ccc4C(=O)O)o3)C2=O)c1 has an IC50 of over 50 µM.
CC1=NN(c2cccc(C(=O)O)c2)C(=O)/C1=C\c1ccc(-c2ccccc2)o1 showed an IC50 of over 50 µM.
For N#Cc1ccc(N2N=C(c3ccccc3)/C(=C/c3ccc(-c4ccccc4C(=O)O)o3)C2=O)cc1, the IC50 was 18.7 µM.
With O=C(O)c1ccccc1-c1ccc(/C=C2\C(=O)N(c3ccccc3)N=C2c2ccccc2)o1 the IC50 was 41.2 µM.

The compounds below were run against Neuraminidase (Influenza A virus, UniProt B4URF0) (assay: Inhibition of Influenza A virus H5N1 neuraminidase preincubated for 10 mins followed by addition of 2'-(4-methylumbelliferyl)-alpha-D-N-acetylneuraminic acid as fluorogenic substrate measured after 15 mins by fluorescence analysis).
Neuraminidase, sequence (B4URF0 whole entry): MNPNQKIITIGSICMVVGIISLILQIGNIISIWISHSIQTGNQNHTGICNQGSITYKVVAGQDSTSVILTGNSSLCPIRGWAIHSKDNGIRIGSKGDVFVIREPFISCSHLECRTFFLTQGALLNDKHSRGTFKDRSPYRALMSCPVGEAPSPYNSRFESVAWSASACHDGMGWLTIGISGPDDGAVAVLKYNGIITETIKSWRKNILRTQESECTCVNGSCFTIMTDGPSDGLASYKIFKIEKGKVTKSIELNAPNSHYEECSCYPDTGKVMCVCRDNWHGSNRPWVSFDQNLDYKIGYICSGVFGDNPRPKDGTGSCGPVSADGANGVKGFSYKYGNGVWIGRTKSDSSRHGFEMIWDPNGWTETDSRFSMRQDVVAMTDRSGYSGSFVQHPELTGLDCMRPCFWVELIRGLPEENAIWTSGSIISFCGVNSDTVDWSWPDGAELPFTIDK
O=C(O)c1ccc(Cl)cc1-c1ccc(/C=C2\C(=O)N(c3ccc(F)cc3)N=C2c2ccccc2)o1 showed an IC50 of 2.9 µM.
For O=C(O)c1ccc(Cl)cc1-c1ccc(/C=C2\C(=O)N(c3ccccc3)N=C2c2ccccc2)o1, the IC50 was 2.8 µM.
With O=C(O)c1ccccc1-c1ccc(/C=C2\C(=O)N(c3ccccc3)N=C2c2ccccc2)o1 the IC50 was 13.7 µM.
